Measured values reported in patent EP4623908A1, “USE OF (-)-EPIGALLOCATECHIN GALLATE COMPOUND” (CF Pharmtech, Inc., priority 2022, dated 2024).

Experiments:
[1] = Single-dose escalation study of nebulized inhalation solution in healthy volunteers, safety and pharmacokinetics (Example 7); assay type: in vivo; conditions: for subjects with local symptoms in the oropharynx and respiratory tract: nebulized inhalation solution, single dose
Procedure: A randomized, double-blind, placebo-controlled clinical study was conducted with 22 healthy volunteers to evaluate the safety and tolerability of single-dose inhalation of EGCG nebulized solution, as well as pharmacokinetic characteristics, compared to placebo nebulized solution and oral EGCG capsules.
Test group: EGCG nebulized inhalation solution (the EGCG nebulized solution containing EDTA as described in Example 6), with an initial concentration of 10mg/mL, diluted to different doses before administration.
Oral control group: EGCG capsules, each weighing 150mg, with EGCG content approximately 94% of the total weight.
Refer to Table 6 below. The oral control group was randomly assigned 4 volunteers to receive 600mg of EGCG capsules (4 capsules, approximately 564mg of EGCG).
The EGCG nebulized inhalation treatment included 3 groups: • 1. 3mg dose group: 1mL of the starting drug solution was diluted to 1mg/mL, and 3mL was administered via the nebulizer. • 2. 10mg dose group: 1mL of the starting drug solution was diluted to 3.33mg/mL, and 3mL was administered via the nebulizer. • 3. 30mg dose group: The starting drug solution was not diluted, and 3mL was directly administered via the nebulizer.
Each nebulized inhalation dose group was randomly assigned 6 volunteers, starting with the lowest dose. In each group, 2 volunteers were designated as sentinels (1:1 randomization, 1 in the EGCG nebulized inhalation group and 1 in the placebo group), observed for ≥24 hours, and the study investigator performed a safety assessment. After permission from the investigator, the remaining 4 volunteers in each group received their assigned treatment (3:1 randomization, 3 in the EGCG nebulized inhalation group and 1 in the placebo group). Table 6: Group Information for Oral Control and EGCG Nebulized Inhalation Administration Groups.
Blood samples were collected from the subjects at 13 time points: pre-dose (within 1 hour before administration), and post-dose at 15 minutes, 30 minutes, 1 hour, 1.5 hours, 2 hours, 3 hours, 4 hours, 6 hours, 8 hours, 10 hours, 12 hours, and 24 hours. A total of 4mL of blood was collected at each time point, and plasma was extracted for pharmacokinetic (PK) testing, backup, and metabolite identification.
Adverse event (AE) monitoring; physical examination; vital signs (body temperature, blood pressure, pulse, respiration), blood oxygen saturation; heart function; lung function.

[2] = cited from earlier work
[3] = Plasma pharmacokinetics in rats after tracheal nebulization, intravenous injection and oral gavage (Example 1); assay type: in vivo, SD rats; conditions: for AUC(0-t) / Cmax: male, Sprague-Dawley; for AUC(0-t) / Cmax / F: rat plasma
Description: Example 1: Plasma pharmacokinetics study in rats after administration of EGCG via tracheal nebulization, intravenous injection, and oral gavage.
Materials: EGCG, content > 98wt%.
Preparation of tracheal nebulization solution: Accurately weigh the EGCG compound and dissolve it in Solvent 1 to prepare a clear and transparent drug solution. Solvent 1 is composed of purified water, citric acid, and sodium citrate.
Preparation of intravenous injection and oral gavage solutions: Accurately weigh the EGCG compound and dissolve it in saline.
Animals: Clean-grade male SD rats, provided by Qinglongshan Animal Breeding Farm in Jiangning District, Nanjing City, with a body weight range of 160-200g.
Tracheal Nebulization (inh): Rats in each tracheal nebulization group were anesthetized with isoflurane and fixed in a restraint device. An anesthetic laryngoscope was used to press the animal's tongue root and expose the glottis. A micro liquid nebulizer needle (blunt tip) filled with a specific amount of EGCG solution, was gently inserted into the trachea. The drug was nebulized into the lungs, the needle was quickly withdrawn, and the rat was removed from the holder, with its head rotated left and right to ensure even distribution of the drug across the lung lobes. The nebulized inhalation doses were 1.6 mg/kg, 3.2 mg/kg, and 6.4 mg/kg, with 5 rats in each dose group.
Oral Gavage (po): The dosage for each rat was determined based on body weight. An appropriate size syringe and gavage tube were used to administer the drug orally. The dose was 60 mg/kg, with 5 rats.
Intravenous Injection (iv): EGCG was administered via tail vein injection. The dose was 3.2 mg/kg, with 5 rats in total.
Blood samples were collected from the experimental groups via the orbital venous plexus before administration (0 min) and at 5 min, 15 min, 30 min, 1 h, 2 h, 4 h, and 6 h after administration (8 sampling points in total), with approximately 50-100 µL of whole blood collected at each point.
After collection at the specified time points, blood samples were placed in heparinized tubes, centrifuged, and plasma was separated into centrifuge tubes, then stored at -70°C for subsequent analysis.
Mass spectrometry conditions: Determined using UPLC-MS/MS. Chromatographic conditions: Determined using. Pharmacokinetic parameters were calculated using the WinNonlin pharmacokinetic software with statistical moment methods for each animal.

[4] = Pharmacokinetics of low-dose tracheal nebulization and oral gavage in rat plasma and lungs (Example 3); assay type: in vivo, rats; conditions: for Lung AUC0-t / Lung Cmax: rat lung tissue, average
Procedure: As described in Example 1, the administration methods of oral gavage or tracheal nebulization of different doses of EGCG solution in rats were used to study the pharmacokinetic parameters of the drug in the lungs. The tracheal nebulization doses were 0.05 mg/kg, 0.1 mg/kg, 0.2 mg/kg, and 0.4 mg/kg, with 6-8 rats per dose group. The oral gavage dose was 60 mg/kg, with 6 rats.
The blood sampling method and sample processing were as described in Example 2. The blood collection time points for this experiment were 5 minutes, 2 hours, 6 hours, 8 hours, 10 hours, and 16 hours post-administration, with approximately […] of whole blood collected at each time point.

[5] = human plasma, after inhalation compared to oral administration
[6] = inhaled, tracheal nebulization (inh) 1.6 mg/kg
[7] = inhaled, tracheal nebulization (inh) 3.2 mg/kg
[8] = inhaled, tracheal nebulization (inh) 6.4 mg/kg
[9] = intravenous injection (iv) 3.2 mg/kg
[10] = Tracheal Nebulization (inh) 0.05 mg/kg
[11] = Tracheal Nebulization (inh) 0.1 mg/kg
[12] = Tracheal Nebulization (inh) 0.2 mg/kg
[13] = Tracheal Nebulization (inh) 0.4 mg/kg
[14] = rat, after oral gavage 60 mg/kg

O=C(O[C@@H]1Cc2c(O)cc(O)cc2O[C@@H]1c1cc(O)c(O)c(O)c1)c1cc(O)c(O)c(O)c1 [EGCG, (-)-Epigallocatechin gallate]
overall tolerability ([1]; after nebulized inhalation 3mg/10mg/30mg): overall tolerability was good | physical examination, vital signs, heart function, and lung function ([1]; all subjects (nebulized 3mg/10mg/30mg, oral capsules 600mg)): No significant abnormalities | inhalation Cmax relative to the oral Cmax ([1]; human plasma, 10mg nebulized dose group vs oral capsules 600mg): about 1/227 | Cmax level [1, 5]: lower | time to reach peak plasma concentration (Tmax) [1, 5]: later | subjects with local symptoms in the oropharynx and respiratory tract ([1]; 3mg dose group): no subjects | subjects with local symptoms in the oropharynx and respiratory tract ([1]; 10mg dose group, mild): 1 out of 4 | subjects with local symptoms in the oropharynx and respiratory tract ([1]; 30mg dose group, mild): 2 out of 4 | serum transaminases ([2]; daily oral intake at doses equal to or higher than 800 mg): significantly increased serum transaminases | body weight of patients ([2]; oral): significantly reduce the body weight | AUC(0-t) [3, 6]: 409 ± 75.6 ng·h/mL | Cmax [3, 6]: 298 ± 91.9 ng/mL | AUC(0-t) [3, 7]: 1120 ± 220 ng·h/mL | Cmax [3, 7]: 1120 ± 127 ng/mL | AUC(0-t) [3, 8]: 1860 ± 595 ng·h/mL | Cmax [3, 8]: 2020 ± 658 ng/mL | AUC(0-t) [3, 9]: 1680 ± 614 ng·h/mL | Cmax [3, 9]: 1920 ± 789 ng/mL | AUC(0-t) ([3]; oral gavage (po) 60 mg/kg): 372 ± 167 ng·h/mL | Cmax ([3]; oral gavage (po) 60 mg/kg): 118 ± 73 ng/mL | dose ratio between oral gavage and inhalation when achieving the same plasma exposure level ([3]; po 60 mg/kg: inh 1.6 mg/kg, rat): 37.5 times | F ([3]; oral gavage (po) 60 mg/kg): 1.2±0.0% | F ([3]; tracheal nebulization (inh) 1.6 mg/kg): 48.7±9.0% | F ([3]; tracheal nebulization (inh) 3.2 mg/kg): 66.9±13.1% | F ([3]; tracheal nebulization (inh) 6.4 mg/kg): 55.3±17.7% | Cmax ([4]; lung, inhaled or intranasal, rat, inhalation dose above 0.2 mg/kg, read-out: maximum drug concentration (Cmax) in the lungs): > 1000 ng/mL | Lung AUC0-t [4, 10]: 284.7 ng·h/mL | Lung Cmax [4, 10]: 79.6 ng/mL | Lung AUC0-t [4, 11]: 1031.4 ng·h/mL | Lung Cmax [4, 11]: 220.4 ng/mL | Lung AUC0-t [4, 12]: 3082.7 ng·h/mL | Lung Cmax [4, 12]: 1038.0 ng/mL | Lung AUC0-t [4, 13]: 11764.1 ng·h/mL | Lung Cmax [4, 13]: 3180.0 ng/mL | Lung AUC0-t ([4]; oral gavage (po) 60 mg/kg): 226.4 ng·h/mL | Lung Cmax ([4]; oral gavage (po) 60 mg/kg): 43.4 ng/mL | lung concentration [4, 14]: less than 100 ng/mL | plasma drug concentrations [4, 14]: less than 100 ng/mL | inhalation dose as fraction of the oral dose at comparable lung drug concentration ([4]; rat, inh 0.05 mg/kg vs oral gavage 60 mg/kg): 1/1200 | peak concentration in the lungs of the oral administration ([4]; rat, oral gavage 60 mg/kg): 32 ng/mL | drug concentration in the lungs ([4]; rat, tracheal nebulization of 0.1, 0.2, or 0.4 mg/kg, for up to 16 hours): greater than 50 ng/mL
